Results published in ChEMBL document CHEMBL3885861, “Open TG-GATES”.

Organism: Rattus norvegicus
Test: Open TG-GATES - Regimen: Single
Format: toxicity, organism-based, Sprague-Dawley
Parameters: regimen Single, gender Male, age 6 weeks
Conditions: in vivo, po, route gavage; for gamma-GTP / ALP / AST / BUN / CRE / Ca / Cl / DBIL / GLC / IP / K / LDH / Na / PL / RALB / TBIL / TC / TG / TP: tissue Plasma; for KIDNEY_L / KIDNEY_R / KIDNEY_TOTAL: tissue Kidney; for LIVER: tissue Liver
[1] = 60 mg/kg, 3 h, tissue Blood, dose level Low
[2] = 60 mg/kg, 6 h, tissue Blood, dose level Low

## CC(=O)Nc1nnc(S(N)(=O)=O)s1 [ACETAZOLAMIDE]
0 mg/kg, 24 h, dose level Control
  gamma-GTP: 2.2 IU/L
60 mg/kg, 3 h, dose level Low
  TERMINAL_BW: 208.4 g
  KIDNEY_L: 0.9 g
  KIDNEY_R: 1 g
  KIDNEY_TOTAL: 1.9 g
  LIVER: 9.5 g
  ALP: 1527.8 IU/L
  AST: 75.8 IU/L
  BUN: 12.2 mg/dL
  CRE: 0.2 mg/dL
  Ca: 11.1 mg/dL
  Cl: 111.6 meq/L
  DBIL: 0 mg/dL
  GLC: 184.6 mg/dL
  IP: 9.6 mg/dL
  K: 3.9 meq/L
  LDH: 212.8 IU/L
  Na: 141.4 meq/L
  PL: 142.2 mg/dL
  RALB: 3.4 g/dL
  TBIL: 0.018 mg/dL
  TC: 88 mg/dL
  TG: 28.2 mg/dL
  TP: 5.9 g/dL
  gamma-GTP: 1.4 IU/L
[1]
  APTT: 22.2 s
  Bas: 0%
  Eos: 1%
  Fbg: 313.4 mg/dL
  Ht: 40.8%
  MCH: 21.4 pg
  MCHC: 32.1%
  MCV: 66.9 fL
  Mono: 1.6%
  PT: 16.8 s
  Plat: 125.7 x10_4/uL
  RBC: 610.4 x10_4/ul
  Ret: 8.6%
  WBC: 69.8 x10_2/uL
60 mg/kg, 6 h, dose level Low
  TERMINAL_BW: 202.8 g
  KIDNEY_L: 0.9 g
  KIDNEY_R: 0.9 g
  KIDNEY_TOTAL: 1.8 g
  LIVER: 8.4 g
  ALP: 1445.8 IU/L
  AST: 72.8 IU/L
  BUN: 11.8 mg/dL
  CRE: 0.2 mg/dL
  Ca: 11 mg/dL
  Cl: 113 meq/L
  DBIL: 0 mg/dL
  GLC: 187.4 mg/dL
  IP: 9.6 mg/dL
  K: 4.2 meq/L
  LDH: 177.4 IU/L
  Na: 139.4 meq/L
  PL: 138.2 mg/dL
  RALB: 3.3 g/dL
  TBIL: 0.024 mg/dL
  TC: 83 mg/dL
  TG: 27.2 mg/dL
  TP: 5.9 g/dL
[2]
  APTT: 23 s
  Bas: 0%
  Eos: 1%
  Fbg: 336.6 mg/dL
  Ht: 42.5%
  MCH: 20.9 pg
  MCV: 65.6 fL
  Mono: 3%
  PT: 16.8 s
  Plat: 120.9 x10_4/uL
  RBC: 648 x10_4/ul
  Ret: 8.7%
  WBC: 98.5 x10_2/uL
